Measured values as given in patent publication US8586588B2, “Aryl pyridazinone derivatives and their use as H3 receptor ligands” (Cephalon, Inc., priority 2006, dated 2013).
pKi: −log10 of the molar value. Where two headings read alike, the source gives them in different places.

Tests used:
[1] = molecular target: T1, rat histamine H3 receptor (Rattus norvegicus, UniProt Q9QYN8); test: Rat H3 radioligand binding ([3H]-N-alpha-methylhistamine, CHO-A3 cell membranes, SPA); details: binding constant as letter class
T1 construct: encoding the entire 445-amino-acid rat histamine H3 receptor; expressed in transfected cells
T1 sequence (Q9QYN8 whole entry): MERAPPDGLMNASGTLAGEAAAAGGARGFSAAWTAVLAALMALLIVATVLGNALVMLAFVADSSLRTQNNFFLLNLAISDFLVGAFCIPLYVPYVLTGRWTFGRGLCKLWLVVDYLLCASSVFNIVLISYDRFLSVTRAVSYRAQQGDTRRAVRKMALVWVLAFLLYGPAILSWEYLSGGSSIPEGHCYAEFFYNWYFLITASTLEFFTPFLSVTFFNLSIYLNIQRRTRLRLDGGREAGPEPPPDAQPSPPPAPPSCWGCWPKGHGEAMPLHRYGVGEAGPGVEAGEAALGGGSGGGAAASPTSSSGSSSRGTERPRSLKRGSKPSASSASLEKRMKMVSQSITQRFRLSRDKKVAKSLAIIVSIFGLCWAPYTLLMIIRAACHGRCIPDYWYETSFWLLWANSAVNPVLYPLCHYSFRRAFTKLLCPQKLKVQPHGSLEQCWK
Summary of the method: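 Scintillation proximity displacement of about 1 nM [3H]-N-alpha-methylhistamine, test compound 0.01 nM-30 μM, 4 h, room temperature, in the dark. Receptor source: rat H3 stably transfected into CHO-A3 cells, 10 μg membrane protein, Tris-HCl pH 7.4/MgCl2/BSA buffer. Nonspecific binding defined by 10 μM clobenpropit.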

human H3 receptor = molecular target: T2, human H3 receptor (Homo sapiens, UniProt Q9Y5N1); test: Human H3 radioligand binding ([3H]-N-alpha-methylhistamine, CHO cell membranes, SPA); details: binding constant as letter class
T2 construct: expressed in transfected cells
T2 sequence (Q9Y5N1 whole entry): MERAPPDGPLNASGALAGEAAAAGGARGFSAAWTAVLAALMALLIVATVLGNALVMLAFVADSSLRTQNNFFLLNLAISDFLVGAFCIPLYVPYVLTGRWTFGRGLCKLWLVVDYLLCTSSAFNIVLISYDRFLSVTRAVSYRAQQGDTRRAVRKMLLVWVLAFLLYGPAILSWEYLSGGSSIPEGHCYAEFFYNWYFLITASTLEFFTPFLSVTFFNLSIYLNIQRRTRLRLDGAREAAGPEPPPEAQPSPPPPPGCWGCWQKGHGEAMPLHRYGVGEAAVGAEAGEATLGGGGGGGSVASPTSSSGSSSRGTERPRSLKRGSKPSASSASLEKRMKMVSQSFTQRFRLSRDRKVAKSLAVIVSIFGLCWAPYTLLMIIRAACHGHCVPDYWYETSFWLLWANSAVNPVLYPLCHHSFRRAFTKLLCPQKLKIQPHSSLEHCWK
Summary of the method: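 Scintillation proximity format: bead-proximal [3H]-N-alpha-methylhistamine (approximately 1 nM final) bound to human H3 receptor in CHO membranes was counted after 4 h at room temperature, light-protected. Buffer was pH 7.4 Tris/MgCl2/BSA; test compounds spanned 0.01 nM-30 μM; 10 μM clobenpropit set non-specific binding.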

Row | SMILES | pKi ([1]; Table A, read-out: Rat H3 Ki) | pKi (human H3 receptor; Table A) | pKi ([1]; Table B, read-out: rat H3 Ki) | pKi (human H3 receptor; Table B)
1 | C[C@@H]1CCCN1CCCOc1ccc(-c2nn(C)c(=O)c3c2CCCC3)cc1 [Example 60, 2-Methyl-4-{4-[3-((R)-2-methyl-pyrrolidin-1-yl)-propoxy]-phenyl}-5,6,7,8-tetrahydro-2H-phthalazin-1-one] | 7.00 to 10.00 | 7.00 to 10.00 | – | –
2 | CCCn1nc(-c2ccc(OCCCN3[C@H](C)CC[C@H]3C)cc2)c2sccc2c1=O [Example 33, 7-{4-[3-((2R,5R)-2,5-Dimethyl-pyrrolidin-1-yl)-propoxy]-phenyl)-5-propyl-5H-thieno[2,3-d]pyridazin-4-one] | 6.30 to 7.00 | 7.00 to 10.00 | – | –
3 | C[C@@H]1CCCN1CCCOc1ccc(-c2nn(C)c(=O)c3c2CCC3)cc1 [Example 56, 2-Methyl-4-{4-[3-((R)-2-methyl-pyrrolidin-1-yl)-propoxy]-phenyl}-2,5,6,7-tetrahydro-cyclopenta[d]pyridazin-1-one] | 7.00 to 10.00 | 7.00 to 10.00 | – | –
4 | Cn1nc(-c2ccc(OCC3CCN(C4CCC4)CC3)cc2)ccc1=O [Example 67, 6-[4-(1-Cyclobutyl-piperidin-4-ylmethoxy)-phenyl]-2-methyl-2H-pyridazin-3-one] | < 6.00 | 6.30 to 7.00 | – | –
5 | CCCn1nc(-c2ccc(OCCCN3CCC[C@H]3C)cc2)c2sccc2c1=O [Example 32, 7-{4-[3-((R)-2-Methyl-pyrrolidin-1-yl)-propoxy]phenyl}-5-propyl-5H-thieno[2,3-d]pyridazin-4-one] | 7.00 to 10.00 | 7.00 to 10.00 | – | –
6 | CCCn1nc(-c2ccc(OCCCN3CCC[C@H]3CN3CCCC3)cc2)c2sccc2c1=O [Example 36, 5-Propyl-7-{4-[3-((S)-2-pyrrolidin-1-ylmethyl-pyrrolidin-1-yl)-propoxy]-phenyl}-5H-thieno[2,3-d]pyridazin-4-one] | < 6.00 | 6.30 to 7.00 | – | –
7 | C[C@@H]1CCCN1CCCOc1ccc(-c2ccc(=O)n(-c3cc(Cl)cc(Cl)c3)n2)cc1 [Example 9, 2-(3,5-Dichloro-phenyl)-6-{4-[3-((R)-2-methyl-pyrrolidin-1-yl)-propoxy]-phenyl}-2H-pyridazin-3-one] | 7.00 to 10.00 | 7.00 to 10.00 | – | –
8 | COC[C@H]1CCCN1CCCOc1ccc(-c2nn(C(C)C)c(=O)c3ccsc23)cc1 [Example 27, 5-Isopropyl-7-{4-[3-((R)-2-methoxymethyl-pyrrolidin-1-yl)-propoxy]-phenyl}-5H-thieno[2,3-d]pyridazin-4-one] | < 6.00 | < 6.00 | – | –
9 | Cn1nc(-c2ccc(OCC3CCNCC3)cc2)c2ccccc2c1=O [Example 63, 2-Methyl-4-[4-(piperidin-4-ylmethoxy)-phenyl]-2H-phthalazin-1-one] | < 6.00 | < 6.00 | – | –
10 | Cc1cc(-c2ccc(OCCCN3CCC[C@H]3C)cc2)nn(C(C)C)c1=O [Example 41, 2-Isopropyl-4-methyl-6-{4-[3-((R)-2-methyl-pyrrolidin-1-yl)-propoxy]-phenyl}-2H-pyridazin-3-one] | 7.00 to 10.00 | 7.00 to 10.00 | – | –
11 | O=c1c2ccccc2c(-c2ccc(OCCCN3CCCCC3)cc2)nn1Cc1ccc(Cl)cc1 [Example 55, 2-(4-Chloro-benzyl)-4-[4-(3-piperidin-1-yl-propoxy)-phenyl]-2H-phthalazin-1-one] | 7.00 to 10.00 | 7.00 to 10.00 | – | –
12 | CC(C)n1nc(-c2ccc(OCCCN3CCCC(C)(C)C3)cc2)c2sccc2c1=O [Example 25, 7-{4-[3-(3,3-Dimethyl-piperidin-1-yl)-propoxy]-phenyl}-5-isopropyl-5H-thieno[2,3-d]pyridazin-4-one] | < 6.00 | 6.30 to 7.00 | – | –
13 | Cc1cc(-c2ccc(OCCCN3CCCCC3)cc2)nn(Cc2ccccc2)c1=O [Example 44, 2-Benzyl-4-methyl-6-[4-(3-piperidin-1-yl-propoxy)-phenyl]-2H-pyridazin-3-one] | 6.30 to 7.00 | 7.00 to 10.00 | – | –
14 | C[C@@H]1CCCN1CCCOc1ccc(C2=NN(Cc3ccccc3)C(=O)CC2)cc1 [Example 17, 2-Benzyl-6-{4-[3-((R)-2-methyl-pyrrolidin-1-yl)-propoxy]-phenyl}-4,5-dihydro-2H-pyridazin-3-one] | 7.00 to 10.00 | 7.00 to 10.00 | – | –
15 | C[C@@H]1CCCN1CCCOc1ccc(-n2ncccc2=O)cc1 [Example 21, 2-{4-[3-((R)-2-Methyl-pyrrolidin-1-yl)-propoxy]-phenyl}-2H-pyridazin-3-one] | 6.00 to 6.30 | 7.00 to 10.00 | – | –
16 | Cn1nc(-c2ccc(OCCCN3CCCCC3)cc2)c2c(c1=O)CCC2 [Example 57, 2-Methyl-4-[4-(3-piperidin-1-yl-propoxy)-phenyl]-2,5,6,7-tetrahydro-cyclopenta[d]pyridazin-1-one] | 7.00 to 10.00 | 7.00 to 10.00 | – | –
17 | CCCn1nc(-c2ccc(OCCCN3CCC(N(C)C)CC3)cc2)c2sccc2c1=O [Example 35, 7-{4-[3-(4-Dimethylamino-piperidin-1-yl)-propoxy]-phenyl}-5-propyl-5H-thieno[2,3-d]pyridazin-4-one] | 6.30 to 7.00 | 6.30 to 7.00 | – | –
18 | C[C@@H]1CCCN1CCCOc1ccc(-c2n[nH]c(=O)c3c2CCC3)cc1 [Example 12, 4-{4-[3-((R)-2-Methyl-pyrrolidin-1-yl)-propoxy]-phenyl}-2,5,6,7-tetrahydro-cyclopenta[d]pyridazin-1-one] | 7.00 to 10.00 | 7.00 to 10.00 | – | –
19 | Cn1nc(-c2ccc(OCCN3CCCCC3)cc2)c2ccccc2c1=O [Example 51, 2-Methyl-4-[4-(2-piperidin-1-yl-ethoxy)-phenyl]-2H-phthalazin-1-one] | < 6.00 | 7.00 to 10.00 | – | –
20 | CCn1nc(-c2ccc(OCCCN3CCC[C@H]3C)cc2)ccc1=O [Example 6, 2-Ethyl-6-{4-[3-((R)-2-methyl-pyrrolidin-1-yl)-propoxy]-phenyl}-2H-pyridazin-3-one] | 7.00 to 10.00 | 7.00 to 10.00 | – | –

The next lines start with the values.

Row | pKi ([1]; Table A, read-out: Rat H3 Ki) | pKi (human H3 receptor; Table A) | pKi ([1]; Table B, read-out: rat H3 Ki) | pKi (human H3 receptor; Table B) | SMILES
21 | – | – | 7.00 to 10.00 | 7.00 to 10.00 | Cc1n[nH]c(=O)cc1-c1ccc(OCCCN2CCC[C@H]2C)cc1 [Example 88, 6-Methyl-5-{4-[3-((R)-2-methyl-pyrrolidin-1-yl)-propoxy]-phenyl}-2H-pyridazin-3-one]
22 | 6.30 to 7.00 | 7.00 to 10.00 | – | – | CC(C)N1CCC(COc2ccc(-c3ccc(=O)n(C)n3)cc2)CC1 [Example 68, 6-[4-(1-Isopropyl-piperidin-4-ylmethoxy)-phenyl]-2-methyl-2H-pyridazin-3-one]
23 | – | – | 7.00 to 10.00 | 7.00 to 10.00 | C[C@@H]1CCCN1CCCOc1ccc(-c2ccc(=O)[nH]n2)cc1F [Example 119, 6-{3-Fluoro-4-[3-((R)-2-methyl-pyrrolidin-1-yl)-propoxy]-phenyl}-2H-pyridazin-3-one]
24 | – | – | 7.00 to 10.00 | 7.00 to 10.00 | Cc1nn(C)c(=O)cc1-c1ccc(OCCCN2CCCCC2)cc1 [Example 87, 2,6-Dimethyl-5-[4-(3-piperidin-1-yl-propoxy)-phenyl]-2H-pyridazin-3-one]
25 | – | – | 7.00 to 10.00 | 7.00 to 10.00 | Cc1n[nH]c(=O)cc1-c1ccc(OCCCN2CCCCC2)cc1 [Example 89, 6-Methyl-5-[4-(3-piperidin-1-yl-propoxy)-phenyl]-2H-pyridazin-3-one]
26 | – | – | 7.00 to 10.00 | 7.00 to 10.00 | CN1N=C(c2ccc(OC3CCN(C4CCCC4)CC3)cc2)C2CC2C1=O (stereo not drawn) [Example 260, 5-[4-(1-Cyclopentyl-piperidin-4-yloxy)-phenyl]-3-methyl-3,4-diaza-bicyclo[4.1.0]hept-4-en-2-one]
27 | – | – | 6.30 to 7.00 | 6.30 to 7.00 | COc1cc(OCCCN2CCC[C@H]2C)ccc1-c1ccc(=O)[nH]n1 [Example 213, 6-{2-Methoxy-4-[3-((R)-2-methyl-pyrrolidin-1-yl)-propoxy]-phenyl}-2H-pyridazin-3-one]
28 | – | – | 7.00 to 10.00 | 7.00 to 10.00 | Cc1nn(-c2ccsc2)c(=O)cc1-c1ccc(OCCCN2CCC[C@H]2C)cc1 [Example 108, 6-Methyl-5-{4-[3-((R)-2-methyl-pyrrolidin-1-yl)-propoxy]-phenyl}-2-thiophen-3-yl-2H-pyridazin-3-one]
29 | – | – | < 6.00 | < 6.00 | O=c1ccc(-c2ccc(OCCCN3CCOCC3)cc2)n[nH]1 [Example 238, 6-[4-(3-Morpholin-4-yl-propoxy)-phenyl]-2H-pyridazin-3-one]
30 | 7.00 to 10.00 | 7.00 to 10.00 | – | – | CC(C)N1CCC(Oc2ccc(-c3ccc(=O)n(C)n3)cc2)CC1 [Example 72]
31 | < 6.00 | 6.00 to 6.30 | – | – | Cn1nc(-c2ccc(OC3CCNCC3)cc2)ccc1=O [Example 73]
32 | 6.00 to 6.30 | 6.30 to 7.00 | – | – | CN1CCC(COc2ccc(-c3ccc(=O)n(C)n3)cc2)CC1 [Example 71, 2-Methyl-6-[4-(1-methyl-piperidin-4-ylmethoxy)-phenyl]-2H-pyridazin-3-one]
33 | – | – | 7.00 to 10.00 | 7.00 to 10.00 | C[C@@H]1CCCN1CCCOc1ccc2c(c1)CCc1cc(=O)[nH]nc1-2 [Example 209, 8-[3-((R)-2-Methyl-pyrrolidin-1-yl)-propoxy]-5,6-dihydro-2H-benzo[h]cinnolin-3-one]
34 | – | – | 7.00 to 10.00 | 7.00 to 10.00 | C[C@@H]1CCCN1CCCOc1ccc(-c2ccc(=O)n(CCF)n2)cc1 [Example 118, 2-(2-Fluoro-ethyl)-6-{4-[3-((R)-2-methyl-pyrrolidin-1-yl)-propoxy]-phenyl}-2H-pyridazin-3-one]
35 | – | – | 7.00 to 10.00 | 7.00 to 10.00 | CC1CC(=O)NN=C1c1ccc(OCCCN2CCCC2)cc1 (racemic) [Example 198, 5-Methyl-6-[4-(3-pyrrolidin-1-yl-propoxy)-phenyl]-4,5-dihydro-2H-pyridazin-3-one]
36 | – | – | 7.00 to 10.00 | 7.00 to 10.00 | COCn1ncc(-c2ccc(OCCCN3CCC[C@H]3C)cc2)c(OC)c1=O [Example 235, 4-Methoxy-2-methoxymethyl-5-{4-[3-((R)-2-methyl-pyrrolidin-1-yl)-propoxy]-phenyl}-2H-pyridazin-3-one]
